# According to paper PMC5458078, “Global mapping of CARM1 substrates defines enzyme specificity and substrate recognition” (Nature Communications, 2017):
# Where two headings read alike, the source gives them in different places.
# Assays:
# MCF7 cells = assay: Quantitative nanoLC-MS/MS (TMT) of ADMA-containing peptides, CARM1 KO vs parental; assay type: cell-based, human; set-up: Fold change KO/WT: scale not given here
# MCF7 CARM1 KO cells = assay: Quantitative MS of ADMA-containing peptides in MCF7 CARM1 KO cells expressing CARM1 28-608 or CARM1 140-608, and in CARM1 KO; assay type: cell-based, human
# [1] = ADMA-containing peptide, MCF7, CARM1 knockout (KO1-3) vs wild type (WT1-3), TMT 6-plex experiment #1
# [2] = log2 scale ratio, mean of n = 3
# [3] = ADMA-containing peptide, CARM1 knockout (KO) vs wild type (WT) MCF7 cells, 6-plex TMT experiment #1, three biological replicates each, sheet "MCF7"
# [4] = CARM1 140-608 versus WT, mean of three replicates (log2)
# [5] = KO versus WT, mean of three replicates (log2)
# [6] = MCF7, CARM1 knockout vs wild type, n = 3 each
# [7] = ratio on log2 scale, mean of 3 replicates
# [8] = CARM1 KO vs wild type MCF7 cells, 3 biological replicates each
# [9] = CARM1 140-608 versus WT, difference of mean log2 values
# [10] = CARM1 KO versus WT, difference of mean log2 values
# [11] = MCF7, CARM1 KO vs WT, three biological replicates each
# [12] = CARM1 140-608 vs WT, mean of 3 replicates, log2
# [13] = KO vs WT, mean of 3 replicates, log2
# [14] = MCF7, CARM1 KO (KO1-KO3) vs wild type (WT1-WT3)
# [15] = CARM1 140-608 vs WT, mean of 3 replicates (log2 scale)
# [16] = KO vs WT, mean of 3 replicates (log2 scale)
# [17] = MCF7 CARM1 knockout vs wild type, 3 biological replicates each, values are on log2 scale
# [18] = mean, CARM1 140-608 versus WT (log2 scale)
# [19] = mean, CARM1 KO versus WT (log2 scale)
substance,measurement,setting,value
NHPrVYQNR,Fold change KO/WT,MCF7 cells; [1],0.9632
same,CARM1 140-608/WT,MCF7 CARM1 KO cells; [2],-0.04969
same,KO/WT,MCF7 CARM1 KO cells; [2],0.9632
LNASIAGLFPPQINIPLPPrPNLNR,Fold change KO/WT,MCF7 cells; [3],-2.4198
same,CARM1 140-608/WT,MCF7 CARM1 KO cells; [4],-1.542
same,KO/WT,MCF7 CARM1 KO cells; [5],-2.454
SPLLNQPVPELSHASLIANQSPFrAPLNVTNTAGTSLPSVDLLQK,Fold change KO/WT,MCF7 cells; [6],-2.328
same,CARM1 140-608/WT,MCF7 CARM1 KO cells; [7],-2.179
same,KO/WT,MCF7 CARM1 KO cells; [7],-2.328
KVPQPCSSATLNrLTVPrYSIPTGDPPPYPEIASQLAQGR,Fold change KO/WT,MCF7 cells; [8],-4.368
same,CARM1 140-608/WT,MCF7 CARM1 KO cells; [9],-2.332
same,KO/WT,MCF7 CARM1 KO cells; [10],-4.368
VELPTCMYrLPNVHGR,Fold change KO/WT,MCF7 cells; [11],-2.379
same,CARM1 140-608/WT,MCF7 CARM1 KO cells; [12],-1.403
same,KO/WT,MCF7 CARM1 KO cells; [13],-3.7411
GVVNTAVSAAVQAVrGrGrGTLTr,Fold change KO/WT,MCF7 cells; [1],-0.6248
same,CARM1 140-608/WT,MCF7 CARM1 KO cells; [2],-0.4677
same,KO/WT,MCF7 CARM1 KO cells; [2],-0.6727
DQPGTSAVPNLASVGTrLPPPLPQNLLYTVSErQPMYSR,Fold change KO/WT,MCF7 cells; [14],-3.343
same,CARM1 140-608/WT,MCF7 CARM1 KO cells; [4],-2.641
same,KO/WT,MCF7 CARM1 KO cells; [5],-3.343
AMLPGSPLFTrAPPPK,Fold change KO/WT,MCF7 cells; [3],-3.62
same,CARM1 140-608/WT,MCF7 CARM1 KO cells; [4],-2.658
same,KO/WT,MCF7 CARM1 KO cells; [5],-3.62
LEPPLTPrCPLDFAPQTLSFPYAR,Fold change KO/WT,MCF7 cells; [11],-5.801
same,CARM1 140-608/WT,MCF7 CARM1 KO cells; [12],-2.973
same,KO/WT,MCF7 CARM1 KO cells; [13],-5.801
GTVVTPVQVPLLPVPSQPrPAVGPQrFPGPPEFPQHTPGPVPNSFSQPPrLPLQDQWrAPPPPQDR,Fold change KO/WT,MCF7 cells; [14],-3.321
same,CARM1 140-608/WT,MCF7 CARM1 KO cells; [15],-1.653
same,KO/WT,MCF7 CARM1 KO cells; [16],-3.712
ErLALAAGPALrPDMSYAER,Fold change KO/WT,MCF7 cells; [11],-2.368
same,CARM1 140-608/WT,MCF7 CARM1 KO cells; [12],-1.6609
same,KO/WT,MCF7 CARM1 KO cells; [13],-2.368
DFAFYNPrLQGK,Fold change KO/WT,MCF7 cells; [11],-2.168
same,CARM1 140-608/WT,MCF7 CARM1 KO cells; [12],-2.071
same,KO/WT,MCF7 CARM1 KO cells; [13],-2.382
VSTSGPrAFSSrSYTSGPGSrISSSSFSR,Fold change KO/WT,MCF7 cells; [17],-2.338
same,CARM1 140-608/WT,"MCF7 CARM1 KO cells; difference of log2 means, CARM1 140-608 vs WT",-2.338
same,KO/WT,"MCF7 CARM1 KO cells; difference of log2 means, KO vs WT",-2.338
FCAFGGNPPVTGPrSALAPNLLTSGK,Fold change KO/WT,MCF7 cells; [11],-4.63
same,CARM1 140-608/WT,MCF7 CARM1 KO cells; [12],-3.4143
same,KO/WT,MCF7 CARM1 KO cells; [13],-5.047
YPLPPPSGrYNWN,Fold change KO/WT,MCF7 cells; [8],-1.371
same,CARM1 140-608/WT,MCF7 CARM1 KO cells; [9],-1.592
same,KO/WT,MCF7 CARM1 KO cells; [10],-1.5401
MGTPVPRPPQDMGQIGVrTPLGPrVAAPVGPVGPTPTVLPMGAPVPrPrGPPPPPGDENR,Fold change KO/WT,MCF7 cells; [14],-3.294
same,CARM1 140-608/WT,MCF7 CARM1 KO cells; [15],-2.604
same,KO/WT,MCF7 CARM1 KO cells; [16],-3.5517
APPSFPPPAASrGGLGGTR,Fold change KO/WT,MCF7 cells; [1],0.1973
same,CARM1 140-608/WT,MCF7 CARM1 KO cells; [2],-0.3832
same,KO/WT,MCF7 CARM1 KO cells; [2],0.1973
ErDQLYYECYSDVSVHEEMIADR,Fold change KO/WT,MCF7 cells; [14],-0.1341
same,CARM1 140-608/WT,MCF7 CARM1 KO cells; [4],-0.3168
same,KO/WT,MCF7 CARM1 KO cells; [5],-0.6326
FrHNIAYFPQIVSVAAR,Fold change KO/WT,MCF7 cells; [17],-0.6457
same,CARM1 140-608/WT,MCF7 CARM1 KO cells; [18],-0.3364
same,KO/WT,MCF7 CARM1 KO cells; [19],-0.6457
LQLGTPPPLLAArLVPPR,Fold change KO/WT,MCF7 cells; [14],-2.7388
same,CARM1 140-608/WT,MCF7 CARM1 KO cells; [4],-3.287
same,KO/WT,MCF7 CARM1 KO cells; [5],-5.072
LGHDAYrLGQDPYR,Fold change KO/WT,MCF7 cells; [1],-1.081
same,CARM1 140-608/WT,MCF7 CARM1 KO cells,-1.007
same,KO/WT,MCF7 CARM1 KO cells,-1.081
LLPAPrAYLVPENFR,Fold change KO/WT,MCF7 cells; [8],-0.8691
same,CARM1 140-608/WT,MCF7 CARM1 KO cells; [9],-1.125
same,KO/WT,MCF7 CARM1 KO cells; [10],-0.8691
TATVTIrPNTSGSGGTTSNSQVITGPQIrPGMTVIRTPLQQSTLGK,Fold change KO/WT,MCF7 cells; [11],-1.078
same,CARM1 140-608/WT,MCF7 CARM1 KO cells; [12],2.998
same,KO/WT,MCF7 CARM1 KO cells; [13],-1.078
GPLPPPRPTPrPPVPPrGPLrGPLPQ,Fold change KO/WT,MCF7 cells; [14],-0.7434
same,CARM1 140-608/WT,MCF7 CARM1 KO cells; [15],0.8489
same,KO/WT,MCF7 CARM1 KO cells; [16],-0.7434
LLALSGPGGGrGrGSLLLR,Fold change KO/WT,MCF7 cells; [3],0.2339
same,CARM1 140-608/WT,MCF7 CARM1 KO cells; [4],-0.3383
same,KO/WT,MCF7 CARM1 KO cells; [5],-0.09674
IPYPAGTLPNPLLPHPLHENEVLrHQLFAAPYR,Fold change KO/WT,MCF7 cells; [11],-1.146
same,CARM1 140-608/WT,MCF7 CARM1 KO cells; [12],-0.5059
same,KO/WT,MCF7 CARM1 KO cells; [13],-1.312
GGrGrGGSGGGGGGGGGGYNR,Fold change KO/WT,MCF7 cells; [6],-0.05268
same,CARM1 140-608/WT,MCF7 CARM1 KO cells; [18],0.1837
same,KO/WT,MCF7 CARM1 KO cells; [19],0.3356
GVGPPrGALVrGTPVrGAITR,Fold change KO/WT,MCF7 cells; [17],-0.04858
same,CARM1 140-608/WT,MCF7 CARM1 KO cells; [18],0.2467
same,KO/WT,MCF7 CARM1 KO cells; [19],0.3361
QAPrDGLTPVPPLAPAPrPPSSGLPAVLNPrPTLTPGrLPTPTLGTArAPMPTPTLVrPLLK,Fold change KO/WT,MCF7 cells; [1],-4.977
same,CARM1 140-608/WT,MCF7 CARM1 KO cells; [2],-2.613
same,KO/WT,MCF7 CARM1 KO cells; [2],-4.977
FDGQPGQPSLLPrFDGLHGQPGPrFER,Fold change KO/WT,MCF7 cells; [3],-2.047
same,CARM1 140-608/WT,MCF7 CARM1 KO cells; [4],-1.6986
same,KO/WT,MCF7 CARM1 KO cells; [5],-2.399
LIAAAQSGLPVrIESIK,Fold change KO/WT,MCF7 cells; [14],-0.4316
same,CARM1 140-608/WT,MCF7 CARM1 KO cells; [15],-0.3613
same,KO/WT,MCF7 CARM1 KO cells; [16],-0.4316
SPGVFRPEQDPVPrMPFEK,Fold change KO/WT,MCF7 cells; [14],-2.083
same,CARM1 140-608/WT,MCF7 CARM1 KO cells; [15],-0.5664
same,KO/WT,MCF7 CARM1 KO cells; [16],-2.083
